We go through five compounds from patent publication US12544377B2, “Compounds, compositions and methods of treating or preventing acute lung injury” (Yale University, priority 2017, dated 2026).

The test system of one assay is LPS-induced lung injury. Kind of assay: LPS-induced lung injury in mice. The format is in vivo. To be noted: for difference between HS-DKO and WT control mice in permeability and edema, LPS-induced injury: mice fed diet containing BHA. On the procedure: Mice were anesthetized with ketamine/Xylazine (1 gm/kg and 100 mg/kg) and were allowed to inhaled 50 μl of LPS (1 mg/ml) placed as droplets on nares. Mice postures were maintained upright. Twenty-two hours after the induction of injury, 100 μl of FITC-labeled albumin (10 mg/ml) were injected via retro-orbital vein, and 24 hours after the induction of injury, mice were euthanized by exsanguination. To obtain bronchoalveolar lavage fluid, 1 ml of PBS was instilled into lungs and retrieved a via a tracheal catheter. In some experiments, mice were first fed with antioxidant BHA in food (Harlan Laboratory Services) for 7 days before the induction of lung injury.

For a further assay, the system named is HCl-induced lung injury. In words: HCl (acid aspiration)-induced lung injury in mice. To be noted: for pulmonary permeability, HCl-induced lung injury, treatment after injury: six hours after injury; for HCl-induced acute lung injury / survival of mice: FIG. 15; for lung permeability, HCl-induced lung injury, preventative treatment: 1.5 mg/Kg intra-nasal 0.5 hour before HCl (0.05 M); for survival, HCl-induced lung injury, preventative treatment: 1.5 mg/Kg intra-nasal 0.5 hour before HCl (0.1 M). In kind it is in vivo. As to the method:
Mice were anaesthetized by ketamine/Xylazine ([…] and 100 mg/kg) and were suspended vertically from their incisors on a custom-made mount for orotracheal instillation. A 22 G catheter (Jelco, Smiths Medical) was guided 1.5 cm below the vocal cords, and 2.5 μl/g of 0.05 M HCl was instilled. Two hours after the induction of injury, 100 μl of FITC-labeled albumin (10 mg/ml) was injected via retro-orbital vein. Measurements were made 6 hours after the induction of injury. Control animals received saline instead of HCl in the same manner. In survival experiments, mice received 2.5 μl/g of 0.1 M HCl orotracheally and the observation period was extended up to 30 h.

For assay [1], the system named is p47phox Ser-208 phosphorylation in neutrophils. In words: Western analysis of fMLP-stimulated neutrophils (phospho-Ser-208 p47phox, MAP3K3 protein). The conditions noted are these: for p47phox phosphorylation at Ser-208 in neutrophils: pretreated 10 min before fMLP (1 μM), phospho-specific antibody.
Description: One day after lung injury induction, lung permeability (FIG. 5D) and histology (FIG. 5E) were examined. […] The C57Bl mice were treated as above and their survival was analyzed by the Mantel-Cox Log-Rank test.
For the next assay, the system named is mouse neutrophils. Kind of assay: ROS release assay in mouse neutrophils stimulated with fMLP. To be noted: pretreated 10 min before fMLP (1 μM).
The test system of assay [2] is bleomycin-induced lung fibrosis. In words: Bleomycin-induced lung fibrosis in mice (hydroxyproline levels). The format is in vivo. The conditions noted are these: 0.05 unit bleomycin once, one week later 60 mg/kg orally for five days. An excerpt: A long detrimental effect of ALI is fibrosis. […] A bleomycin-induced lung fibrosis model was used in this study: Gan, et al., 2012, Nat. Cell Biol. 14:686.

The next assay has as its system human neutrophils. In words: ROS production assay in human neutrophils stimulated with fMLP. The conditions noted are these: fMLP (100 nM), 20 nM pazopanib.
Setting [3] is: 1.5 mg/Kg intra-nasal 1 h after HCl (0.05 M).

“Also recorded” adds a separate entry of the source.

Description for human neutrophils: One day after lung injury induction, lung permeability was determined. […] Six hours after lung injury induction, lung permeability (FIG. 12D) and histology (FIG. 12E) were examined. […] Data from one experiment are presented as mean±sem (Student t-Test, *p<0.05, n=5). […] Six hours after lung injury induction, lung permeability were examined. […] Data from one experiment are presented as mean±sem (Student t-Test, *p<0.05, n=5).
Description for mouse neutrophils: Mice were euthanized in a CO2 chamber according to approved protocol, bone marrow was harvested from long bones of the mice, red blood cells (RBCs) were lysed with ACK buffer (155 mM NH4Cl, 10 mM KHCO3 and 127 μM EDTA), the cells were layered on a discontinuous Percoll gradient composed of 81%, 62% and 45% Percoll layers, and the cells were isolated from the interphase between 81% and 62% Percoll layers. Cells were washed in HBSS and used for various assays.
Neutrophils were suspended in a reaction mixture (0.25% BSA in HBSS with Ca^2+ and Mg^2+, 10 mM Isoluminol, 100 μ/ml HRP), distributed cells in the well of a 96 well plate, and stimulated with fMLP (10 μM). Isoluminol-enhanced chemiluminescence was recorded continuously in a plate reader (Perkin Elmer).

For the compound `COc1ccc(O)c(C(C)(C)C)c1` [BHA, butylated hydroxyanisole], the “pazopanib's effect on lung permeability in mice fed BHA” value with LPS-induced lung injury (chew containing BHA, 60 mg/Kg/day pazopanib via gavage, LPS) is listed as “abrogates pazopanib's effect on lung permeability”. The “difference between HS-DKO and WT control mice in permeability and edema, LPS-induced injury” value with LPS-induced lung injury is given as “abrogates the difference”; in the assay on LPS-induced lung injury (listed as butylated hydroxyanisole (BHA)), “dissipated”.
For the compound `Cc1ccc(NC(=O)c2ccc(CN3CCN(C)CC3)cc2)cc1Nc1nccc(-c2cccnc2)n1` [imatinib, 4-[(4-methylpiperazin-1-yl)methyl]-N-(4-methyl-3-{[4-(pyridin-3-yl)pyrimidin-2-yl]amino}phenyl)benzamide], the “pulmonary permeability, HCl-induced lung injury, treatment after injury” value is given as “ineffective in reducing lung permeability; also recorded: does not attenuate HCl-induced lung injury” in the assay on HCl-induced lung injury (setting [3]) and “trend of aggravation of the injury” with HCl-induced lung injury (1.5 mg/Kg intra-nasal 1 h after HCl (0.05 M), listed as Imatinib).
Consider “Avastin: Avastin, a VEGF inhibitor; described in b209 as a neutralizing anti-VEGFR antibody (FIG. 15)”, for which the “HCl-induced acute lung injury / survival of mice” value in the assay with HCl-induced lung injury is recorded as “limited effects”; with HCl-induced lung injury (listed as neutralizing anti-VEGFR antibody), “no effect in survival”.
On to `NC1(c2ccc(-c3nc4ccn5c(=O)[nH]nc5c4cc3-c3ccccc3)cc2)CCC1` [MK-2206, 8-[4-(1-Aminocyclobutyl)phenyl]-9-phenyl-2H-[1,2,4]triazolo[3,4-f][1,6]naphthyridin-3-one], for which the “effect of pazopanib on permeability in LPS-injured lungs in presence of AKT inhibitor” value in the assay with LPS-induced lung injury (MK-2206 10 mg/Kg with or without 60 mg/Kg/day pazopanib via gavage) was “abrogates the effect of pazopanib on permeability”.
Regarding `Cc1ccc(Nc2nccc(N(C)c3ccc4c(C)n(C)nc4c3)n2)cc1S(N)(=O)=O` [pazopanib, 5-((4-((2,3-dimethyl-2H-indazol-6-yl)(methyl)amino)pyrimidin-2-yl)amino)-2-methylbenzenesulfonamide], in assay [1] (neutrophils, fMLP), the “increase in MAP3K3 protein content induced by fMLP” value is on record as “abrogated increase in MAP3K3 protein content”. In addition, the “p47phox phosphorylation at Ser-208 in neutrophils” value was “inhibits phosphorylation of Ser-208” in assay [1] and “inhibit” in assay [1] (listed as Pazopanib). In addition, the “ROS production from WT mouse neutrophils” value in the assay with mouse neutrophils is “led to increases in the ROS production; also recorded: increases ROS release from neutrophils”. Also, the “lung permeability, HCl-induced lung injury, preventative treatment” value is given as “pretreatment attenuates HCl-induced lung injury” in the assay with HCl-induced lung injury and “effective in reduction of permeability” in the assay with HCl-induced lung injury (listed as Pazopanib). For the same compound, the “survival, HCl-induced lung injury, preventative treatment” value is recorded as “pretreatment reduces mortality” in the assay on HCl-induced lung injury and “extending survival” in the assay with HCl-induced lung injury (listed as Pazopanib). Moreover, in the assay on HCl-induced lung injury (setting [3]), the “alveolar wall thickening and edema (histology), HCl-induced lung injury” value is on record as “decreased”. Also, the “pulmonary permeability, HCl-induced lung injury, treatment after injury” value in the assay on HCl-induced lung injury (setting [3]) is given as “decreased pulmonary permeability; also recorded: attenuates HCl-induced lung injury”. For the same compound, in the assay with HCl-induced lung injury (2.5 mg/Kg intra-nasal 1 h after HCl (0.1 M)), the “survival, HCl-induced lung injury, treatment after injury” value is given as “significantly extended the survival; also recorded: pazopanib treatment reduces mortality”. In the assay on HCl-induced lung injury (p47phox-deficient mice, FIGS. 16C & 16E), the “lung injury (permeability, survival) in mice lacking p47phox” value is on record as “showed no effects; also recorded: abrogated the therapeutic effect of pazopanib”. The “lung fibrosis (levels of hydroxyproline)” value is “inhibits bleomycin-induced lung fibrosis” in assay [2] and “inhibit lung fibrosis” in assay [2] (listed as Pazopanib). For the same compound, in the assay on LPS-induced lung injury (1.5 mg/Kg intra-nasal 24 h after LPS), the “mortality, LPS-induced lung injury, therapeutic modality” value was “reduced mortality; also recorded: therapeutic treatment of pazopanib reduces mortality”. Also, the “mortality, LPS-induced lung injury, prophylactic modality” value with LPS-induced lung injury (60 mg/Kg/day via gavage two days before injury) is “reduces mortality”. Besides, in the assay with LPS-induced lung injury (HS-DKO mice, 60 mg/Kg/day via gavage, FIGS. 12C-12D), the “lung injury in mice lacking MEKK2/3 (HS-DKO), LPS” value is “no effects on lung injury”. Besides, the “AKT phosphorylation in LPS-injured HS-DKO lungs” value with LPS-induced lung injury (HS-DKO mice, FIG. 13E) is “little effect on AKT phosphorylation”. In addition, the “alveolar wall thickening and edema (histology), LPS-induced lung injury” value in the assay with LPS-induced lung injury (WT C57Bl mice, 60 mg/Kg/day via gavage from two days before LPS) is “reduced”. For the same compound, the “pulmonary permeability, LPS-induced lung injury” value in the assay on LPS-induced lung injury (WT C57Bl mice, 60 mg/Kg/day via gavage from two days before LPS, one day after injury, 60 mg/kg/day) was “reduced pulmonary permeability; also recorded: attenuates LPS-induced lung injury”. In addition, in the assay on LPS-induced lung injury (WT mice, FIG. 13D), the “AKT phosphorylation in LPS-injured lungs” value was “increased AKT phosphorylation”. For the same compound, the “ROS production from human neutrophils” value in the assay on human neutrophils is “increases ROS production from human neutrophils”.
